Experiments:
[1] = system: rabbit esophageal epithelium; assay: Ussing chamber method for assessing esophageal epithelial protection against acid injury (60 mM HCl, pH 1.6, decline in electrical resistance R); format: cell-based; details: for protective activity, Resistance Index (RI)=[(Ragent/Rcontrol)-1], RI >0.2 considered significant: 2, 4 and/or 8 mM for 15 min, 30 min and/or >30 min before 60 mM HCl pH 1.6 for 1 hour, N=1 tissue/dose, FIG. 9; for protection against acid injury after brief luminal exposure: 1 min exposure to 4 mM agent, multiple washouts over 4 hours, FIG. 5; for lowest protective dose: pH 1.6, 1 hour; for protective effect, single exposure: single 1 min exposure
Description: Previously, a test system was developed in the Ussing chamber to identify and characterize agents with cytoprotective effects against acid injury to the tissue. Briefly, the esophageal epithelium is mounted in the Ussing chamber so that acid (or acid-pepsin) could be added to the luminal bath while monitoring changes in electrical resistance (R). The changes in R are an effective means to identify damage by acid or acid-pepsin since damage is heralded by an increase in paracellular permeability and this reflected by a decline in R. In effect, the ability of an agent or compound to prevent the acid-induced decline in R without altering luminal pH (which excludes protection being mediated by acid buffering or neutralization) is evidence for a cytoprotective effect, i.e. protection directly exerted by the agent or compound on the epithelium. Further, we previously established that the ability of an agent or compound to prevent the acid-induced decline in R in this Ussing chamber model of acid injury was an accurate predictor, and therefore surrogate marker, of its ability to protect rabbit esophageal epithelium against acid injury in vivo (U.S. Pat. Nos. 5,374,537 and 5,189,056).
(§1) New Zealand white rabbits weighing between 8-9 lbs are sacrificed by administering an intravenous overdose of phenobarbital (60 mg/mL). The esophagus is excised, opened, and pinned mucosal surface down in a paraffin tray containing ice-Cold oxygenated normal Ringer's solution. The submucosa is grasped with hemostats, lifted up, and dissected free of the underlying mucosa with a scalpel. This process yields a sheet of tissue consisting of stratified squamous epithelium and a small amount of underlying connective tissue. From this tissue, four sections are cut and mounted as flat sheets between Lucite half-Chambers with an aperture of 1.13 cm^2 for measurements of potential difference (PD), short circuit current (Isc) and, from these values, calculation of transmucosal electrical resistance (R). Tissues are bathed with normal Ringer solution composed of the following (in mmol/L): Na 140; Cl 119.8; K 5.2; HCO3 25; Ca 1.2; Mg 1.2; HPO4 2.4; H2PO4 0.4; and 268 mOsm/kg water, with pH 7.5 when gassed with 95% O2/5% CO2 at 37° C. Mucosal and serosal solutions are connected to calomel and Ag—AgCl electrodes with Ringer's-agar bridges for measurements of PD and automatic short-Circuiting of the tissue with a voltage clamp (World Precision Instruments Inc., Sarasota, Fla.). Tissues are monitored continuously in the open-circuit state except for 5-10 second periods when the Isc is read. Electrical resistance (R) was calculated using Ohm's Law from the open-circuit PD and Isc.
To test the protective effect of an agent against acid injury to esophageal epithelium, 45 minutes after mounting (equilibration period), tissues paired by R had for one of the pair varying amounts of an agent added to the luminal bath while the other part of the pair received vehicle (normal Ringer solution) as control. After varying periods of exposure to the agent, 60 mM HCl was added to the luminal (mucosal) solution to reduce pH to 1.6; the pH was monitored and maintained throughout the 1 hr of exposure for all tissues to ensure uniform risk of injury. This negated any protective effect as being due to buffering by the agent. In some experiments the power of the protective effect of an agent was determined after varying periods of luminal exposure by washout prior to acid exposure, i.e. replacement of the luminal bath containing agent with normal Ringer Solution that contained only vehicle. R was then monitored before and during acidification with 60 mM HCl and the results for agent and controls presented as percent decline in R from pre-acidification values. […]

[2] = system: rabbit esophageal epithelium; assay: In vivo delivery of agent in drinking water, then Ussing chamber acid injury test (60 mM HCl, pH 1.6); details: for protective effect after in vivo delivery in drinking water: rabbit, acid on day 5
Method: as §1
(§2) New Zealand white rabbits weighing between 8-9 lbs were given 25 ml of water containing test agent or water alone (control) to drink once each morning on 4 consecutive days. Following consumption of the 25 ml of water, the rabbits had their normal water source restored and they ate and drank normally for the remainder of each day. Twenty-four hours after the last dose, the rabbits were sacrificed by administering an intravenous overdose of phenobarbital (60 mg/mL). The esophagus was excised and processed as above to test its ability to resist acid injury upon exposure to 60 mM HCl , pH 1.6, for 1 hr. Three sections of rabbit esophageal epithelium that had been exposed to test agent and three sections exposed to water alone (control) were mounted, equilibrated and then simultaneously exposed to acid on the same day without the operator being aware of which were treated and which were control sections of epithelium. Initial R values in all experiments were similar preacidification. […] Significance was taken as a difference in values of p<0.05.

[3] = system: rabbit esophageal epithelium; assay: In vivo delivery of agent in drinking water, then Ussing chamber acid-pepsin injury test (60 mM HCl, pH 1.6, 1 mg/ml pepsin); details: FIG. 12
Method: as §2
FIG. 12 is a graph showing the protective effect against an acid-pepsin mixture after in vivo delivery of CDDD-1193 in drinking water. A rabbit spontaneously drank 25 ml of water containing 0.6 mg (40 μM) or 0.06 mg (4 μM) CDDD-1193 once-a-day for 4 consecutive days or water alone. On day 5, the rabbits were sacrificed and three sections of esophageal epithelium mounted in Ussing chambers from each rabbit. After equilibration in Ringer solution, all tissues were acidified by luminal addition of 60 mM HCl , pH 1.6, containing 1 mg/ml pepsin, for 1 hour. Electrical resistance, R, was monitored and plotted as percent initial R (%) at the end of 1 hour of acid-pepsin exposure. […] N=3 tissues; * p<0.05 compared to controls.

[4] = then 60 mM HCl pH 1.6 for 1 hour
[5] = agent in luminal bath 30 min before and continuously during 60 mM HCl, R as % of initial R, FIG. 1, 2

## O=S(=O)([O-])OCC(Oc1ccccc1)c1ccccc1.[Na+] (centres unmarked) [CDDD-1185, 2-Phenoxy-2-phenylethanesulfate, sodium salt]
[1]
  protective activity, Resistance Index (RI)=[(Ragent/Rcontrol)-1], RI >0.2 considered significant: may have significant protective activity

## O=S(=O)(O)OC[C@@H](OS(=O)(=O)O)[C@@H](Oc1ccccc1)c1ccccc1.[Na].[Na] [CDDD-1187, (2R, 3S)-3-Phenoxy-3-phenylpropane-1,2-disulfate, disodium salt]
[1]
  protective activity, Resistance Index (RI)=[(Ragent/Rcontrol)-1], RI >0.2 considered significant: may have significant protective activity

## O=S(=O)([O-])OCC(Oc1ccc(Cl)cc1S(=O)(=O)[O-])c1ccccc1.[Na+].[Na+] (centres unmarked) [CDDD-1188, 2-(4-Chloro-2-sulfophenoxy)-2-phenylethanesulfate, disodium salt]
[1]
  protective activity, Resistance Index (RI)=[(Ragent/Rcontrol)-1], RI >0.2 considered significant: may have significant protective activity

## O=S(=O)(O)OCC(OS(=O)(=O)O)C(Oc1ccccc1)c1ccc(N=C=S)cc1 [CDDD-1192, Disodium (2S, 3R)-3-(4-isothiocyanatophenyl)-3-phenoxypropane-1,2-disulfate]
[1]; [4]
  protection against acid injury after brief luminal exposure: retain significant protection
[1]; agent in luminal bath 30 min before and during 60 mM HCl, FIG. 3
  lowest protective dose: 0.004 mM

## O=S(=O)(O)OC[C@H](OS(=O)(=O)O)[C@H](Oc1ccc(N=C=S)cc1)c1ccc(N=C=S)cc1.[Na].[Na] [CDDD-1193, Disodium (2S, 3R)-3-(4-isothiocyanophenoxy)-3-(4-isothiocyanatophenyl)propane-1,2-disulfate]
[1]; 400 nM, 1 min every 5 min times ten exposures, then 60 mM HCl pH 1.6 for 1 hour, FIG. 7
  protective effect, repeated exposures: protective
[1]; 400 nM, then 60 mM HCl pH 1.6 for 1 hour, FIG. 7
  protective effect, single exposure: little protection
[1]; 1 μM, 1 min every 5 min times 5 or ten exposures, then 60 mM HCl pH 1.6 for 1 hour, FIG. 8
  protective effect, repeated exposures: cumulative with repeated exposures
[1]; 1 μM, then 60 mM HCl pH 1.6 for 1 hour, FIG. 8
  protective effect, single exposure: modestly protective
[1]; [4]
  protection against acid injury after brief luminal exposure: retain significant protection
[1]; 1 min exposure to 4 mM, multiple washouts over 8 hours, then 60 mM HCl pH 1.6 for 1 hour, FIG. 6
  protective effect after brief luminal exposure: substantial
[1]; 1 min exposure to 4 mM, repeated washes before 60 mM HCl pH 1.6, FIG. 6
  persistence of protective effect: 8 h
[1]; agent in luminal bath 30 min before and during 60 mM HCl, FIG. 4
  lowest protective dose: 4e-05 mM
[2]; 4 μM (0.06 mg in 25 ml water) once-a-day for 4 days, FIG. 10B
  protective effect after in vivo delivery in drinking water: significantly protective
[2]; 4 μM in drinking water once-a-day for 4 days, FIG. 10B
  duration of protective effects after the last dose: at least 24 hrs
[2]; 40 μM (0.6 mg in 25 ml water) once-a-day for 4 days, FIG. 10A
  protective effect after in vivo delivery in drinking water: significantly protective
[2]; 40 μM in drinking water once-a-day for 4 days, FIG. 10A
  duration of protective effects after the last dose: at least 24 hrs
[3]; 4 μM (0.06 mg in 25 ml water) once-a-day for 4 days
  protective effect against acid-pepsin after in vivo delivery in drinking water: significantly protective
[3]; 40 μM (0.6 mg in 25 ml water) once-a-day for 4 days
  protective effect against acid-pepsin after in vivo delivery in drinking water: significantly protective
[3]; 40 μM and 4 μM in drinking water once-a-day for 4 days
  duration of protective effect against acid-pepsin after the last dose: at least 24 hours

## CC(=O)Nc1ccc(C=Cc2ccc(N=C=S)cc2S(=O)(=O)O)c(S(=O)(=O)O)c1 [SITS, 4-acetamido-4′-isothiocyanatostilbene-2-2′-disulfonic acid, reference compound]
[1]; [4]
  protection against acid injury after brief luminal exposure: retain significant protection
[1]; [5]
  lowest protective dose: 0.1 mM
[2]; 4 mM (50 mg in 25 ml water) once-a-day for 4 days, FIG. 11
  protective effect after in vivo delivery in drinking water: significantly protective
[2]; 4 mM in drinking water once-a-day for 4 days, FIG. 11
  duration of protective effects after the last dose: at least 24 hrs

## O=S(=O)(O)OC[C@H]1O[C@@](COS(=O)(=O)O)(O[C@H]2O[C@H](COS(=O)(=O)O)[C@@H](OS(=O)(=O)O)[C@H](OS(=O)(=O)O)[C@H]2OS(=O)(=O)O)[C@@H](OS(=O)(=O)O)[C@@H]1OS(=O)(=O)O [SOS, sucrose octasulfate, reference compound]
[1]; [4]
  protection against acid injury after brief luminal exposure: retain significant protection
[1]; [5]
  lowest protective dose: 1 mM

Source: patent US20020052408A1, “Methods for protection of stratified squamous epithelium against injury by noxious substances and novel agents for use therefor” (priority 2000, published 2002)
